Test [1] has as its system MT4. The experiment in a line: Tested against HIV-1 induced cytopathic effect in MT-4 cells on LAV-1 strain. In kind it is functional, Homo sapiens. On the technique in general: Cytopathic effects are the visible damage that an infection or toxin causes in cultured cells.
Test [2] can be described thus: Tested for anticoagulation effect by Zuchker's activated partial thromboplastin time (APTT) method. The class given is functional.
Test [3] relates to MT4. The experiment in a line: Tested against HIV-1 induced cytopathic effect in MT-4 cells on KK-1AIDS (strain clinically isolated from an AIDS patient). The class given is functional, Homo sapiens.
Test [4] has as its system MT4. The experiment in a line: Tested for appearance of MT-4 cell toxicity after 5 days of incubation. The class given is functional. Conditions: Homo sapiens, MT4, 120 h; read-out: TD50 (the source's name).
In test [5] the test system is MT4. The test can be described thus: (§1) Tested for cytopathic effect caused by KK-1AIDS strain in MT-4 cells in the presence of human serum. The class given is functional, cell-based.
The test system of test [6] is Human immunodeficiency virus 1. The test can be described thus: Tested against HIV-1 replication of KK-1AIDS strain in peripheral blood mononuclear cells (value obtained in the presence of 20% FCS). In kind it is functional, organism-based.
For a further test, the system named is MOLT-4. The test can be described thus: Tested for the suppressive effect on giant cell formation in MOLT-4 and MOLT-4/HIV LAV-1 cells (value obtained in the presence of 10% FCS). The class given is functional, cell-based. Conditions: Homo sapiens.
The test system of test [7] is MT4. The test can be described thus: (§2) Tested for cytopathic effect caused by LAV-1 strain in MT-4 cells in the presence of human serum. The class given is functional, cell-based.
Test [8] can be described thus: as §1. The settings on record: MT4, Serum. The class given is functional, cell-based.
Test [9] is described as follows: as §2. Conditions: MT4, Serum. In kind it is functional, cell-based.

Regarding `O=S(=O)([O-])OCC1O[C@H]2O[C@@H]3C(COS(=O)(=O)[O-])O[C@H](O[C@@H]4C(COS(=O)(=O)[O-])O[C@H](O[C@@H]5C(COS(=O)(=O)[O-])O[C@H](O[C@@H]6C(COS(=O)(=O)[O-])O[C@@H](O[C@@H]7C(COS(=O)(=O)[O-])O[C@H](O[C@@H]8C(COS(=O)(=O)[O-])O[C@H](O[C@H]1C(OS(=O)(=O)[O-])C2O)C(OCc1ccccc1)C8OS(=O)(=O)[O-])C(O)C7OS(=O)(=O)[O-])C(OCc1ccccc1)C6OS(=O)(=O)[O-])C(OS(=O)(=O)[O-])C5OS(=O)(=O)[O-])C(OCc1ccccc1)C4OS(=O)(=O)[O-])C(OS(=O)(=O)[O-])C3OS(=O)(=O)[O-].[Na+].[Na+].[Na+].[Na+].[Na+].[Na+].[Na+].[Na+].[Na+].[Na+].[Na+].[Na+].[Na+].[Na+].[Na+].[Na+]` (some centres undefined), the IC100 in the test with MT4 [1] is 1.95 µg/mL; in the test with MT4 [3] it was 3.9 µg/mL. The APTT in [2] amounted to 4 µg/mL. Besides, the CC50 in the test with MT4 [4] is > 1000 µg/mL.

What is called IC50 is the concentration needed to halve the response being measured. `O=S(=O)([O-])OCC1O[C@H]2O[C@@H]3C(CSCc4ccccc4)O[C@H](O[C@@H]4C(COS(=O)(=O)[O-])O[C@H](O[C@@H]5C(COS(=O)(=O)[O-])O[C@@H](O[C@@H]6C(CSCc7ccccc7)O[C@H](O[C@@H]7C(COS(=O)(=O)[O-])O[C@H](O[C@@H]8C(CSCc9ccccc9)O[C@H](O[C@H]1C(O)C2OS(=O)(=O)[O-])C(OS(=O)(=O)[O-])C8OS(=O)(=O)[O-])C(OS(=O)(=O)[O-])C7OS(=O)(=O)[O-])C(OS(=O)(=O)[O-])C6OS(=O)(=O)[O-])C(O)C5OS(=O)(=O)[O-])C(OS(=O)(=O)[O-])C4OS(=O)(=O)[O-])C(OS(=O)(=O)[O-])C3OS(=O)(=O)[O-].[K+].[K+].[K+].[K+].[K+].[K+].[K+].[K+].[K+].[K+].[K+].[K+].[K+].[K+].[K+].[K+]` (some centres undefined): the IC100 stood at 0.98 µg/mL in the test on MT4 [1] and 1.95 µg/mL in the test with MT4 [3]. For the same compound, the IC50 in the test with MT4 [5] stood at 11 µg/mL; in [6], 6.5 µg/mL; in the test on MOLT-4, 2 µg/mL; in the test with MT4 [7], 4.5 µg/mL. In addition, the APTT in test [2] was 7.1 µg/mL. Moreover, the CC50 in the test on MT4 [4] was > 1000 µg/mL.

Turning to `O=S(=O)([O-])OC[C@@H]1O[C@@H]2O[C@H]3[C@H](OS(=O)(=O)[O-])[C@H](OCc4ccccc4)[C@@H](O[C@H]4[C@H](OS(=O)(=O)[O-])[C@H](OCc5ccccc5)[C@@H](O[C@H]5[C@H](OS(=O)(=O)[O-])[C@H](OCc6ccccc6)[C@@H](O[C@H]6[C@H](OS(=O)(=O)[O-])[C@H](OCc7ccccc7)[C@@H](O[C@H]7[C@H](OS(=O)(=O)[O-])[C@H](OCc8ccccc8)C(O[C@H]8[C@H](OS(=O)(=O)[O-])[C@H](OCc9ccccc9)C(O[C@H]1[C@H](OS(=O)(=O)[O-])[C@@H]2OCc1ccccc1)O[C@H]8COS(=O)(=O)[O-])O[C@H]7COS(=O)(=O)[O-])O[C@H]6COS(=O)(=O)[O-])O[C@H]5COS(=O)(=O)[O-])O[C@H]4COS(=O)(=O)[O-])O[C@H]3COS(=O)(=O)[O-].[Na+].[Na+].[Na+].[Na+].[Na+].[Na+].[Na+].[Na+].[Na+].[Na+].[Na+].[Na+].[Na+].[Na+]`, the IC100 in the test on MT4 [1] and in the test on MT4 [3] was 0.98 µg/mL in each case. The IC50 was found to be 5.8 µg/mL in [8], 3.6 µg/mL in test [6], 0.46 µg/mL in the test on MOLT-4 and 0.87 µg/mL in test [9]. In test [2], this compound had an APTT of 14.8 µg/mL. The CC50 with MT4 [4] stood at 1000 µg/mL.

As to `O=S(=O)([O-])OC[C@@H]1O[C@@H]2O[C@H]3[C@H](OS(=O)(=O)[O-])[C@H](O)[C@@H](O[C@H]4[C@H](OS(=O)(=O)[O-])[C@H](O)[C@@H](O[C@H]5[C@H](OS(=O)(=O)[O-])[C@H](O)[C@@H](O[C@H]6[C@H](OS(=O)(=O)[O-])[C@H](O)[C@@H](O[C@H]7[C@H](OS(=O)(=O)[O-])[C@H](O)C(O[C@H]8[C@H](OS(=O)(=O)[O-])[C@H](O)C(O[C@H]1[C@H](OS(=O)(=O)[O-])[C@@H]2O)O[C@H]8COS(=O)(=O)[O-])O[C@H]7COS(=O)(=O)[O-])O[C@H]6COS(=O)(=O)[O-])O[C@H]5COS(=O)(=O)[O-])O[C@H]4COS(=O)(=O)[O-])O[C@H]3COS(=O)(=O)[O-].[K+].[K+].[K+].[K+].[K+].[K+].[K+].[K+].[K+].[K+].[K+].[K+].[K+].[K+]`, the IC100 in the test on MT4 [1] is 31.26 µg/mL; in the test with MT4 [3], 125 µg/mL. The compound also returned an APTT in test [2] of 2.8 µg/mL. Further, the CC50 in the test on MT4 [4] is > 1000 µg/mL.

These data come from ChEMBL document CHEMBL1126710, “A new candidate for an anti-HIV-1 agent: modified cyclodextrin sulfate (mCDS71)” (J Med Chem, 1993).
